Data reported in ChEMBL document CHEMBL5390230, “Imidazole-based sphingosine-1-phosphate transporter Spns2 inhibitors” (Bioorg Med Chem Lett, 2023).

target: T1, Sphingosine-1-phosphate transporter SPNS2 (Homo sapiens) (UniProt Q8IVW8); assay: Inhibition of Spns2 in human HeLa cells assessed as decrease in extracellular S1P level at 2 uM by LC/MS analysis relative to control; assay type: cell-based
T1 sequence (whole entry): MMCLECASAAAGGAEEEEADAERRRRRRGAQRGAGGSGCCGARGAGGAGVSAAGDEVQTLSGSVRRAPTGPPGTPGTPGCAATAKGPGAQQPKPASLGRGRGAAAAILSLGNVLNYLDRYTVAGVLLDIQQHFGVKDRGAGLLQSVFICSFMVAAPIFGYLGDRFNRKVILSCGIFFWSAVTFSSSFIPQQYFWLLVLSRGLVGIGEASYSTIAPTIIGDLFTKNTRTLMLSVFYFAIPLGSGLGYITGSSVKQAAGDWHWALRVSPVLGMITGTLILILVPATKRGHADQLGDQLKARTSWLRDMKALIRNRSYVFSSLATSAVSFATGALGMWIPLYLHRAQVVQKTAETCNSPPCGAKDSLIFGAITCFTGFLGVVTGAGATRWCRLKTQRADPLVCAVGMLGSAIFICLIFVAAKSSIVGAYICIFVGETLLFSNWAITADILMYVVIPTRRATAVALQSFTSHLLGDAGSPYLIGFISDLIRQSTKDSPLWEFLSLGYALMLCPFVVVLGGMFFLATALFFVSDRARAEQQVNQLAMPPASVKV

Going from `CCCCCCCCCCc1ccc(-c2cn(CC(N)=O)c(CCCN)n2)cc1` to `CCCCCCCCCCc1ccc(-c2cn(CC)c(CCCN)n2)cc1`, the inhibition rises from 10% to 51%.

Compared with `CCCCCCCCCCc1ccc(-c2noc(CCCN)n2)cc1`, `CCCCCCCCCCc1ccc(-c2cn(C)c(CCCN)n2)cc1` is lower in inhibition: 67% for the first, 51% for the second.

Going from `CCCCCCCCCCc1ccc(-c2cn(CCC)c(CCCN)n2)cc1` to `CCCCCCCCCCc1ccc(-c2cn(CCCOC)c(CCCN)n2)cc1`, the inhibition rises from 7% to 11%.

`CCCCCCCCCCc1ccc(-c2cn(CC(=O)OC(C)C)c(CCCN)n2)cc1` gave an inhibition of 27%.

target: T2, Sphingosine-1-phosphate transporter SPNS2 (Homo sapiens, UniProt Q8IVW8); assay: Inhibition of Spns2 in human HeLa cells decrease in extracellular S1P level by LC/MS method; assay type: cell-based
T2 sequence (Q8IVW8 whole entry): T1 sequence (whole entry)

Going from `CCCCCCCCCCc1ccc(-c2cn(CC)c(CCCN)n2)cc1` to `CCCCCCCCCCc1ccc(-c2cn(C)c(CCCN)n2)cc1`, the IC50 rises from 1.4 µM to 2.82 µM (2-fold). The first is the more potent here.

target: T1, Sphingosine-1-phosphate transporter SPNS2 (Homo sapiens); assay: Inhibition of Spns2 in human HeLa cells assessed as decrease in extracellular S1P level at 3 uM by LC/MS analysis relative to control; assay type: cell-based

First: CCCCCCCc1nc(-c2ccc(-n3cc[n+](C)c3)cc2)no1
Second: CCCCCCCCc1nc(-c2ccc(-n3cc[n+](C)c3)cc2)no1
The inhibition of the first is lower: 0% for the first, 26% for the second.

Going from `CCCCCCCCCc1nc(-c2ccc(-n3ccnc3)cc2)no1` to `CCCCCCCCCCc1nc(-c2ccc(-n3ccnc3)cc2)no1`, the inhibition rises from 28% to 33%.

Going from `CCCCCCCCc1nc(-c2ccc(-n3ccnc3)cc2)no1` to `CCCCCCCc1nc(-c2ccc(-n3ccnc3)cc2)no1`, the inhibition falls from 22% to 12%.

Going from `CCCCCCCCCCCc1nc(-c2ccc(-n3ccnc3)cc2)no1` to `CCCCCCCCCCCc1nc(-c2ccc(-n3cc[n+](C)c3)cc2)no1`, the inhibition falls from 25% to 3%.

Compared with `CCCCCCCCCc1nc(-c2ccc(-n3cc[n+](C)c3)cc2)no1`, `CCCCCCCCCCc1nc(-c2ccc(-n3cc[n+](C)c3)cc2)no1` is lower in inhibition: 47% for the first, 41% for the second.
